Tests used:
Type in all cases: in vivo
Plutella xylostella = test: Diamond back moth (Plutella xylostella) cabbage leaf-dip test; details: 3rd instar larvae on dipped cabbage leaves, 72 hours after treatment, read-out: mortality in comparison with untreated controls
Experimental: The active compound was dissolved at the desired concentration in a mixture of 1:1 (vol:vol) distilled water:aceteone. Surfactant (Kinetic HV) was added at a rate of 0.01% (vol/vol).The test solution was prepared at the day of use.
Leaves of cabbage were dipped in test solution and air-dried. Treated leaves were placed in petri dishes lined with moist filter paper and inoculated with ten 3rd instar larvae. Mortality was recorded 72 hours after treatment. Feeding damages were also recorded using a scale of 0-100%.

Myzus persicae = test: Green peach aphid (Myzus persicae) systemic test, artificial diet in microtiter plates; details: 72 h, adult aphids on treated artificial diet, 3 days, read-out: mortality in comparison with untreated controls
Description: For evaluating control of green peach aphid (Myzus persicae) through systemic means the test unit consisted of 96-well-microtiter plates containing liquid artificial diet under an artificial membrane.
The compounds were formulated using a solution containing 75% v/v water and 25% v/v DMSO. Different concentrations of formulated compounds were pipetted into the aphid diet, using a custom built pipetter, at two replications.
After application, 5-8 adult aphids were placed on the artificial membrane inside the microtiter plate wells. The aphids were then allowed to suck on the treated aphid diet and incubated at about 23±1 ° C. and about 50±5% relative humidity for 3 days. Aphid mortality and fecundity was then visually assessed.

Megoura viciae = test: Vetch aphid (Megoura viciae) broad bean leaf disk test; details: foliar, 120 h, adult aphids on sprayed broad bean leaf disks, 5 days, read-out: mortality in comparison with untreated controls
Experimental: For evaluating control of vetch aphid (Megoura viciae) through contact or systemic means the test unit consisted of 24-well-microtiter plates containing broad bean leaf disks.
The compounds were formulated using a solution containing 75% v/v water and 25% v/v DMSO. Different concentrations of formulated compounds were sprayed onto the leaf disks at 2.5 μl, using a custom built micro atomizer, at two replications.
After application, the leaf disks were air-dried and 5- 8 adult aphids placed on the leaf disks inside the microtiter plate wells. The aphids were then allowed to suck on the treated leaf disks and incubated at about 23±1° C. and about 50±5% relative humidity for 5 days. Aphid mortality and fecundity was then visually assessed.

Heliothis virescens = test: Tobacco budworm (Heliothis virescens) insect diet/egg microtiter test; details: 120 h, egg and larval mortality on sprayed insect diet, 5 days, read-out: mortality in comparison with untreated controls
Experimental: For evaluating control of tobacco budworm (Heliothis virescens) the test unit consisted of 96-well-microtiter plates containing an insect diet and 15-25 H. virescens eggs.
The compounds were formulated using a solution containing 75% v/v water and 25% v/v DMSO. Different concentrations of formulated compounds were sprayed onto the insect diet at 10 μl, using a custom built micro atomizer, at two replications.
After application, microtiter plates were incubated at about 28+1° C. and about 80+5% relative humidity for 5 days. Egg and larval mortality was then visually assessed.

Anthonomus grandis = test: Boll weevil (Anthonomus grandis) insect diet/egg microtiter test; details: 120 h, egg and larval mortality on sprayed insect diet, 5 days, read-out: mortality in comparison with untreated controls
Experimental: For evaluating control of boll weevil (Anthonomus grandis) the test unit consisted of 96-well-microtiter plates containing an insect diet and 5-10 A. grandis eggs.
(§1) The compounds were formulated using a solution containing 75% v/v water and 25% v/v DMSO. Different concentrations of formulated compounds were sprayed onto the insect diet at 5 μl, using a custom built micro atomizer, at two replications.
After application, microtiter plates were incubated at about 25±1° C. and about 75±5% relative humidity for 5 days. Egg and larval mortality was then visually assessed.

Dichromothrips corbetti = test: Orchid thrips (dichromothrips corbetti) floral-immersion test; details: adult thrips on dipped orchid petals, 72 hours after treatment, read-out: mortality in comparison with untreated controls
Experimental: Dichromothrips corbetti adults used for bioassay were obtained from a colony maintained continuously under laboratory conditions. For testing purposes, the test compound is diluted in a 1:1 mixture of acetone:water (vol:vol), plus Kinetic HV ata rate of 0.01% v/v.
Thrips potency of each compound was evaluated by using a floral-immersion technique. All petals of individual, intact orchid flowers were dipped into treatment solution and allowed to dry in Petri dishes. Treated petals were placed into individual re-sealable plastic along with about 20 adult thrips. All test arenas were held under continuous light and a temperature of about 28° C. for duration of the assay. After 3 days, the numbers of live thrips were counted on each petal. The percent mortality was recorded 72 hours after treatment.

Nephotettix virescens = test: Rice green leafhopper (Nephotettix virescens) sprayed rice seedling test; details: adults on sprayed rice seedlings, after 72 hours, read-out: mortality in comparison with untreated controls
Experimental: Rice seedlings were cleaned and washed 24 hours before spraying. The active compounds were formulated in 1:1 acetone:water (vol:vol), and 0.01% vol/vol surfactant (Kinetic HV) was added. Potted rice seedlings were sprayed with 5-6 ml test solution, air dried, covered with Mylar cages cages and inoculated with 10 adults. Treated rice plants were kept at about 28-29° C. and relative humidity of about 50-60%. Percent mortality was recorded after 72 hours.

Tetranychus kanzawai = test: Red spider mite (Tetranychus kanzawai) sprayed cowpea bean test; details: mites on sprayed cowpea beans, 72 hours after treatment, read-out: mortality in comparison with untreated controls
Experimental: The active compound was dissolved at the desired concentration in a mixture of 1:1 (vol:vol) distilled water:acetone. Add surfactant (Kinetic HV) was added at a rate of 0.01% (vol/vol).The test solution was prepared at the day of use.
Potted cowpea beans of 4-5 days of age were cleaned with tap water and sprayed with 1-2 ml of the test solution using air driven hand atomizer. The treated plants were allowed to air dry and afterwards inoculated with 30 or more mites by clipping a cassava leaf section from rearing population. Treated plants were placed inside a holding room at about 25-27° C. and about 50-60% relative humidity. Percent mortality was assessed 72 hours after treatment.

Spodoptera eridania = test: Southern armyworm (Spodoptera eridania) sprayed lima bean foliage test; details: foliar, 96 h, larvae on sprayed lima bean plants, 4 days after treatment, read-out: mortality in comparison with untreated controls
Experimental: The active compounds were formulated in cyclohexanone as a 10,000 ppm solution supplied in tubes. The tubes were inserted into an automated electrostatic sprayer equipped with an atomizing nozzle and they served as stock solutions for which lower dilutions were made in 50% acetone:50% water (v/v). A nonionic surfactant (Kinetic®) was included in the solution at a volume of 0.01% (v/v).
Lima bean plants (variety Sieva) were grown 2 plants to a pot and selected for treatment at the 1st true leaf stage. Test solutions were sprayed onto the foliage by an automated electrostatic plant sprayer equipped with an atomizing spray nozzle. The plants were dried in the sprayer fume hood and then removed from the sprayer. Each pot was placed into perforated plastic bags with a zip closure. About 10 to 11 armyworm larvae were placed into the bag and the bags zipped closed. Test plants were maintained in a growth room at about 25° C. and about 20-40% relative humidity for 4 days, avoiding direct exposure to fluorescent light (24 hour photoperiod) to prevent trapping of heat inside the bags. Mortality and reduced feeding were assessed 4 days after treatment, compared to untreated control plants.

Nezara viridula = test: Green soldier stink bug (Nezara viridula) sprayed soybean pod test; details: 120 h, late 3rd instar on sprayed soybean pods, after 5 days, read-out: mortality in comparison with untreated controls
Experimental: The active compound was dissolved at the desired concentration in a mixture of 1:1 (vol:vol) distilled water:acetone. Surfactant (Kinetic HV) was added at a rate of 0.01% (vol/vol). The test solution was prepared at the day of use.Soybean pods were placed in glass Petri dishes lined with moist filter paper and inoculated with ten late 3rd instar N. vindula. Using a hand atomizer, approximately 2 ml solution is sprayed into each Petri dish. Assay arenas were kept at about 25° C. Percent mortality was recorded after 5 days.

Halyomorpha halys = test: Brown marmorated stink bug (Halyomorpha halys) sprayed peanut/soybean seed test; details: 120 h, adult stage, sprayed cups with peanuts and soybean seeds, after 5 days, read-out: mortality in comparison with untreated controls
Experimental: The active compound was dissolved at the desired concentration in a mixture of 1:1 (vol:vol) distilled water:acetone. Surfactant (Kinetic HV) was added at a rate of 0.01% (vol/vol). The test solution was prepared at the day of use.
Row peanuts and soybean seeds were placed into microwavable plastic cups and inoculated with five adult stage H. halys. Using a hand atomizer, approximately 1 ml solution is sprayed into each cup, insects and food present. A water source was provided (cotton wick with water). Each treatment is replicated 4-fold. Assay arenas are kept at about 25° C. Percent mortality was recorded after 5 days.

Ceratitis capitata = test: Mediterranean fruitfly (Ceratitis capitata) insect diet/egg microtiter test; details: 120 h, egg and larval mortality on sprayed insect diet, 5 days, read-out: mortality in comparison with untreated controls
Experimental: For evaluating control of Mediterranean fruitfly (Ceratitis capitata) the test unit consisted of microtiter plates containing an insect diet and 50-80 C. capitata eggs.
as §1
After application, microtiter plates were incubated at about 28±1° C. and about 80±5% relative humidity for 5 days. Egg and larval mortality was then visually assessed.

CC(=O)N1CC2(C1)OCc1cc(C3=CSC(c4cc(Cl)c(F)c(Cl)c4)(C(F)(F)F)C3)ccc12 (centres unmarked) [Compound I-2-2, 1-[6-[2-(3,5-dichloro-4-fluoro-phenyl)-2-(trifluoromethyl)-3H-thiophen-4-yl]spiro[1H-isobenzofuran-3,3′-azetidine]-1′-yl]ethanone]
≥ 75%: mortality at 300 ppm (Plutella xylostella) | mortality at 2500 ppm (Myzus persicae) | mortality at 2500 ppm (Megoura viciae) | mortality at 2500 ppm (Heliothis virescens) | mortality at 2500 ppm (Anthonomus grandis) | mortality at 300 ppm (Dichromothrips corbetti) | mortality at 300 ppm (Nephotettix virescens) | mortality at 300 ppm (Tetranychus kanzawai) | mortality at 10 ppm (Spodoptera eridania) | mortality at 300 ppm (Nezara viridula) | mortality at 100 ppm (Halyomorpha halys)

CCC(=O)N1CC2(C1)OCc1cc(C3=CCC(c4cc(Cl)c(F)c(Cl)c4)(C(F)(F)F)C3)ccc12 (centres unmarked) [Compound I-1-1, 1-[6-[4-(3,5-dichloro-4-fluoro-phenyl)-4-(trifluoromethyl)cyclopenten-1-yl]spiro[1H-isobenzofuran-3,3′-azetidine]-1′-yl]propan-1-one]
≥ 75%: mortality at 300 ppm (Plutella xylostella) | mortality at 2500 ppm (Myzus persicae) | mortality at 2500 ppm (Megoura viciae) | mortality at 2500 ppm (Heliothis virescens) | mortality at 2500 ppm (Anthonomus grandis) | mortality at 2500 ppm (Ceratitis capitata) | mortality at 300 ppm (Dichromothrips corbetti) | mortality at 300 ppm (Nephotettix virescens) | mortality at 300 ppm (Tetranychus kanzawai) | mortality at 10 ppm (Spodoptera eridania) | mortality at 300 ppm (Nezara viridula) | mortality at 100 ppm (Halyomorpha halys)
